Test results reported in patent US4613596A, “Amino methyl furans and pharmaceutical compositions” (Magis Farmaceutrici s.r.l., priority 1982, dated 1986).

Experiments:
[1] = Acute toxicity (LD50) in mouse; format: in vivo; conditions: in vivo, 10 days observation
Method: (§1) Acute toxicity was studied in male and female mice of Swiss stock, and in male and female albino rats of Wistar stock, by administering the active principle orally, intravenously and intramuscularly.
(§2) For each method of administration, doses in geometrical progression were administered to 10 animals for each dose over a period of observation of 10 days.
(§3) On termination of the period of observation, the LD50 and the relative reliability limits were calculated by the method of Litchfield and Wilcoxon (Pharmacol. Exp. Ther., 96-19, 1949).

[2] = Acute toxicity (LD50) in rat; format: in vivo; conditions: in vivo, 10 days observation
Method: as §1, §2, §3

mice of Swiss stock = assay: Acute toxicity (LD50) in mouse; format: in vivo; conditions: 10 days observation; for LD50, mouse, intram. admin.: intramuscular; for LD50, mouse, intrav. admin.: intravenous; for LD50, mouse, oral admin.: Litchfield and Wilcoxon
Method: as §1, §2, §3

[3] = test system: albino rats of Wistar stock; assay: Acute toxicity (LD50) in rat; format: in vivo; conditions: 10 days observation; for LD50, rat, intram. admin.: intramuscular; for LD50, rat, intrav. admin.: intravenous
Method: as §1, §2, §3

[4] = test system: gastric ulcers induced by the ligature of the pylorus; assay: Gastric ulcers induced by ligature of the pylorus; format: in vivo, rat (Sprague Dawley); conditions: oral, one hour after operation; compounds and ranitidine 1, 3, 10, 30 mg/kg; cimetidine 3, 10, 30, 100 mg/kg
Method: To study the effect of the new compounds according to the present invention, 50 male and female rats of Sprague Dawley stock weighing approximately 200 grams were used for each compound examined.
The animals, under diet, were subjected to legature of the pylorus.
One hour after this operation, the animals were treated orally either with doses of 1, 3, 10 and 30 mg/kg of the examined compounds, or with doses of 3, 10, 30 and 100 mg/kg of cimetidine, or with doses of 1, 3, 10 and 30 mg/kg of ranitidine.

[5] = im, intramuscular, read-out: LD50, mouse, intram. admin.
[6] = intravenous, read-out: LD50, mouse, intrav. admin.
[7] = oral, Litchfield and Wilcoxon, read-out: LD50, mouse, oral admin.
[8] = im, intramuscular, read-out: LD50, rat, intram. admin.
[9] = intravenous, read-out: LD50, rat, intrav. admin.
[10] = oral, read-out: LD50, rat, oral admin.

CN(C)Cc1ccc(CSCCNC(=C[N+](=O)[O-])N2CCCCC2)o1
LD50 at 240 h [1, 5]: 300 mg/kg
LD50 at 240 h [1, 6]: 90 mg/kg
LD50 at 240 h [1, 7]: 2600 mg/kg
LD50 at 240 h [2, 8]: 2100 mg/kg
LD50 at 240 h [2, 9]: 100 mg/kg

CN(C)Cc1ccc(CSCCNC(=C[N+](=O)[O-])N[C@H]2C[C@H]3CC[C@@H]2C3)o1 (relative stereo) [AU/019]
LD50 at 240 h [1, 5]: 300 mg/kg
LD50 at 240 h [1, 6]: 100 mg/kg
LD50 at 240 h [1, 7]: 2600 mg/kg
LD50 at 240 h [2, 8]: 2100 mg/kg
LD50 at 240 h [2, 9]: 120 mg/kg

CC1CCN(C(=C[N+](=O)[O-])NCCSCc2ccc(CN(C)C)o2)CC1 [AU/002, 1-N-[2-[[5-[(dimethylamino)methyl]furfuryl]thio]ethyl]amino-1-(4-methyl-piperidino)-2-nitro-ethene]
LD50 at 240 h [1, 5]: 320 mg/kg
LD50 at 240 h [1, 6]: 100 mg/kg
LD50 at 240 h [1, 7]: 2700 mg/kg
LD50 at 240 h [2, 8]: 2000 mg/kg
LD50 at 240 h [2, 9]: 100 mg/kg

CCN1CCCC(NC(=C[N+](=O)[O-])NCCSCc2ccc(CN(C)C)o2)C1 (stereo not drawn) [AU/003]
LD50 at 240 h [1, 5]: 300 mg/kg
LD50 at 240 h [1, 6]: 90 mg/kg
LD50 at 240 h [1, 7]: 2800 mg/kg
LD50 at 240 h [2, 8]: 2200 mg/kg
LD50 at 240 h [2, 9]: 100 mg/kg

CN(C)Cc1ccc(CSCCNC(=C[N+](=O)[O-])N2CCN(CCO)CC2)o1 [AU/004, 1-N-[2-[[5-[(dimethylamino)methyl]furfuryl]thio]ethyl]-amino-1-4-(2-hydroxyethyl)-1-piperazino ethene]
LD50 at 240 h [1, 5]: 300 mg/kg
LD50 at 240 h [1, 6]: 95 mg/kg
LD50 at 240 h [1, 7]: 2700 mg/kg
LD50 at 240 h [2, 8]: 2000 mg/kg
LD50 at 240 h [2, 9]: 110 mg/kg

CN(C)Cc1ccc(CSCCNC(=C[N+](=O)[O-])N2CCC(Cc3ccccc3)CC2)o1 [AU/005, 1-N-[2-[[5-[(dimethylamino)methyl]furfuryl]thio]ethyl]-amino-1-(4-benzyl-piperidino)-2-nitroethene]
LD50 at 240 h [1, 5]: 300 mg/kg
LD50 at 240 h [1, 6]: 95 mg/kg
LD50 at 240 h [1, 7]: 2700 mg/kg
LD50 at 240 h [2, 8]: 2100 mg/kg
LD50 at 240 h [2, 9]: 110 mg/kg
LD50 at 240 h [2, 10]: 5500 mg/kg

CN(C)Cc1ccc(CSCCNC(=C[N+](=O)[O-])N2CCN(Cc3ccccc3)CC2)o1 [AU/006, 1-N-[2-[[5-[(dimethylamino)methyl]furfuryl]thio]ethyl]amino-1-(4-benzyl-piperazino)-2-nitroethene]
LD50 at 240 h [1, 5]: 300 mg/kg
LD50 at 240 h [1, 6]: 90 mg/kg
LD50 at 240 h [1, 7]: 2700 mg/kg
LD50 at 240 h [2, 8]: 2100 mg/kg
LD50 at 240 h [2, 9]: 100 mg/kg

CN(C)Cc1ccc(CSCCNC(=C[N+](=O)[O-])N2CC2)o1 [AU/007, 1-N-[2-[[5-[(dimethylamino)methyl]furfuryl]thio]ethyl]amino-1-ethyleneimino-2-nitroethene]
LD50 at 240 h [1, 5]: 310 mg/kg
LD50 at 240 h [1, 6]: 100 mg/kg
LD50 at 240 h [1, 7]: 2800 mg/kg
LD50 at 240 h [2, 8]: 2100 mg/kg
LD50 at 240 h [2, 9]: 100 mg/kg

CN(C)Cc1ccc(CSCCNC(=C[N+](=O)[O-])N2CCC2)o1 [AU/008, 1-N-[2-[[5-[(dimethylamino)methyl]furfuryl]thio]ethyl]amino-1-cyclopropyleneimino-2-nitroethene]
LD50 at 240 h [1, 5]: 310 mg/kg
LD50 at 240 h [1, 6]: 100 mg/kg
LD50 at 240 h [1, 7]: 2600 mg/kg
LD50 at 240 h [2, 8]: 2200 mg/kg
LD50 at 240 h [2, 9]: 100 mg/kg

CN(C)Cc1ccc(CSCCNC(=C[N+](=O)[O-])NC2CCCCC2)o1 [AU/009, N-[2-[[5-[(dimethylamino)methyl]furfuryl]thio]ethyl]-N'-(cyclohexyl)-2-nitro-1,1-ethenediamine]
LD50 at 240 h [1, 5]: 300 mg/kg
LD50 at 240 h [1, 6]: 100 mg/kg
LD50 at 240 h [1, 7]: 2600 mg/kg
LD50 at 240 h [2, 8]: 2200 mg/kg
LD50 at 240 h [2, 9]: 110 mg/kg

CN(C)Cc1ccc(CSCCNC(=C[N+](=O)[O-])NC2=CCC=CC2)o1 [AU/010, N-[2-[[5-[(dimethylamino)methyl]furfuryl]thio]ethyl]-N'-(1,4-ciclohexadienyl)-2-nitro-1,1-ethenediamine]
LD50, mouse, intram. admin. (mice of Swiss stock): 310 mg/kg
LD50, mouse, intrav. admin. (mice of Swiss stock): 95 mg/kg
LD50, mouse, oral admin. (mice of Swiss stock): 2700 mg/kg
LD50, rat, intram. admin. [3]: 2200 mg/kg
LD50, rat, intrav. admin. [3]: 110 mg/kg

CN(C)Cc1ccc(CSCCNC(=C[N+](=O)[O-])NCC2=CCC=CC2)o1 [AU/011, N-[2-[[5-[(dimethylamino)methyl]furfuryl]thio]ethyl]-N'-(1,4-cyclohexadienyl-2-methyl)-2-nitro-1,1-ethenediamine]
LD50, mouse, intram. admin. (mice of Swiss stock): 310 mg/kg
LD50, mouse, intrav. admin. (mice of Swiss stock): 90 mg/kg
LD50, mouse, oral admin. (mice of Swiss stock): 2700 mg/kg
LD50, rat, intram. admin. [3]: 2100 mg/kg
LD50, rat, intrav. admin. [3]: 110 mg/kg
LD50, rat, oral admin. ([3]; oral): 5510.0 mg/kg

CN(C)Cc1ccc(CSCCNC(=C[N+](=O)[O-])N2CCCCCC2)o1 [AU/013, 1-N-[2-[[5-[(dimethylamino)methyl]furfuryl]thio]ethyl]-amino-1-hexamethyleneimino-2-nitroethene]
LD50 at 240 h [1, 5]: 300 mg/kg
LD50 at 240 h [1, 6]: 90 mg/kg
LD50 at 240 h [1, 7]: 2700 mg/kg
LD50 at 240 h [2, 8]: 2100 mg/kg
LD50 at 240 h [2, 9]: 100 mg/kg
LD50 at 240 h [2, 10]: 5530 mg/kg

CN(C)Cc1ccc(CSCCNC(=C[N+](=O)[O-])NN2CCCCCC2)o1 [AU/014, N-[2-[[5-[(dimethylamino)methyl]furfuryl]thio]ethyl]-N'-(hexamethyleneimino)-2-nitro-1,1-ethenediamine]
LD50 at 240 h [1, 5]: 300 mg/kg
LD50 at 240 h [1, 6]: 90 mg/kg
LD50 at 240 h [1, 7]: 2600 mg/kg
LD50 at 240 h [2, 8]: 2200 mg/kg
LD50 at 240 h [2, 9]: 100 mg/kg

CN(C)Cc1ccc(CSCCNC(=C[N+](=O)[O-])NC2CCCCCC2)o1 [AU/015, N-[2-[[5-[(dimethylamino)methyl]furfuryl]thio]ethyl]-N'-cycloheptyl-2-nitro-1,1-ethenediamine]
LD50 at 240 h [1, 5]: 300 mg/kg
LD50 at 240 h [1, 6]: 100 mg/kg
LD50 at 240 h [1, 7]: 2800 mg/kg
LD50 at 240 h [2, 8]: 2200 mg/kg
LD50 at 240 h [2, 9]: 100 mg/kg

CN(C)Cc1ccc(CSCCNC(=C[N+](=O)[O-])NC2CCCC2)o1 [AU/016, N-[2-[[5-[(dimethylamino)methyl]furfuryl]thio]ethyl]-N'-cyclopentyl-2-nitro-1,1-ethenediamine]
LD50 at 240 h [1, 5]: 300 mg/kg
LD50 at 240 h [1, 6]: 90 mg/kg
LD50 at 240 h [1, 7]: 2700 mg/kg
LD50 at 240 h [2, 8]: 2200 mg/kg
LD50 at 240 h [2, 9]: 100 mg/kg

CN(C)Cc1ccc(CSCCNC(=C[N+](=O)[O-])N2CCCC2)o1 [AU/017, 1-N-[2-[[5-[(dimethylamino)methyl]furfuryl]thio]ethyl]-amino-1-pyrrolidino-2-nitroethene]
LD50 at 240 h [1, 5]: 300 mg/kg
LD50 at 240 h [1, 6]: 100 mg/kg
LD50 at 240 h [1, 7]: 2600 mg/kg
LD50 at 240 h [2, 8]: 2200 mg/kg
LD50 at 240 h [2, 9]: 100 mg/kg

CN(C)Cc1ccc(CSCCNC(=C[N+](=O)[O-])N2CCOCC2)o1 [AU/018, 1-N-[2-[[5-[(dimethylamino)methyl]furfuryl]thio]ethyl]-amino-1-morpholino-2-nitroethene]
LD50 at 240 h [1, 5]: 350 mg/kg
LD50 at 240 h [1, 6]: 90 mg/kg
LD50 at 240 h [1, 7]: 2700 mg/kg
LD50 at 240 h [2, 8]: 2200 mg/kg
LD50 at 240 h [2, 9]: 100 mg/kg

CN(C)Cc1ccc(CSCCNC(=C[N+](=O)[O-])NC2CC3C=CC2C3)o1 (stereo not drawn) [AU/020]
LD50 at 240 h [1, 5]: 300 mg/kg
LD50 at 240 h [1, 6]: 110 mg/kg
LD50 at 240 h [1, 7]: 2700 mg/kg
LD50 at 240 h [2, 8]: 2100 mg/kg
LD50 at 240 h [2, 9]: 110 mg/kg

CN/C(=N/CCSCc1nc[nH]c1C)NC#N [cimetidine]
Inhibition of incidence of gastric ulcers induced by ligature of the pylorus [4]: significantly inhibit the incidence of gastric ulcers

CNC(=C[N+](=O)[O-])NCCSCc1ccc(CN(C)C)o1 [ranitidine]
Inhibition of incidence of gastric ulcers induced by ligature of the pylorus [4]: significantly inhibit the incidence of gastric ulcers

N-[2-[[5-[(dimethylamino)methyl]furfuryl]thio]ethyl]-N'-(1,4-cyclohexadienyl-2-ethyl)-2-nitro-1,1-ethenediamine [AU/012]
LD50, mouse, intram. admin. (mice of Swiss stock): 300 mg/kg
LD50, mouse, intrav. admin. (mice of Swiss stock): 90 mg/kg
LD50, mouse, oral admin. (mice of Swiss stock): 2800 mg/kg
LD50, rat, intram. admin. [3]: 2100 mg/kg
LD50, rat, intrav. admin. [3]: 110 mg/kg
